Read-outs that look alike come from different tables or passages of the source. A value given as a limit tells only on which side of the number the result lay.

Data set [1] relates to ER/NF-κB. Description: ER/NF-κB luciferase reporter in Ad5-wt-ERα infected HAECT-1 cells. It counts as cell-based, human. As to conditions: for Emax: read-out: ER/NFκB Efficacy (%)*; for IC50: read-out: ER/NFκB IC50. As to the method: (§1) After four hours, cells were washed with EBM-BSA and incubated overnight in the same medium. Following overnight incubation, cells were washed with EBM-BSA and infected for 2 hours with 6 mL of a 1:10 dilution of Ad5-3x(NFκB).Luc virus (Adenovirus luciferase expression vector driven by 3 repeats of the MHC NFκb site 5′ to the thymidine kinase promoter) in EBM-BSA. After two hours, cells were washed and incubated at 34° C. for 1 hour. […] Control (no ER infection) cells were processed as above without Ad5-wt-hERα virus infection.
(§2) ERα infected HAECT-1 cells or control cells were thawed, diluted 42× in warm EBM-BSA, plated into 96-well plates at 0.1 mL/well and incubated for 4 hours at 34° C. Test compounds were added to the cells as 2× stocks in EBM-BSA containing 2 ng/mL IL-1β (R&D Systems) and the 96-well plates were returned to the incubator (34° C.). After 15-20 hours, 100 μL aliquots of media were removed from the cells and assayed for IL-6 content using a BioSource human IL-6 ELISA Kit. Cells were subsequently washed with 300 μL of Dulbecco's phosphate buffered saline and lysed in 50 μL of Cell Culture Lysis Reagent (Promega). Luciferase was determined on a Wallac Victor^2 Luminometer (Gaithersburg, Md.) using 10 μL of lysate and mixing with 100 μL of Promega Luciferase Assay reagent. Creatine kinase was determined from the rate of increase in A340 following addition of 100 μL of CK assay reagent (Sigma, cat. No 47-10) to the remainder of the cell lysate.
(§3) For IC50 and EC50 calculations, mean IL-6, luciferase or CK values versus log10 of the compound concentration were fitted to a four parameter logistic equation. The IC50/EC50 value, ‘Hill slope’, upper and lower limits of the curve were iteratively estimated.
(In general: In a reporter assay the amount or activity of a reporter protein is the signal.)

For data set [2], the system named is creatine kinase. Description: Creatine kinase (CK) test procedure in Ad5-wt-ERα infected HAECT-1 cells. It is filed as cell-based, human. As to conditions: Ad5-wt-ERα infected HAECT-1 cells; for Emax at 10 µM / EC50 / Emax: Homo sapiens, HAECT1; for Emax at 10 µM / Emax: read-out: Creatin Kinase Efficacy (%); for EC50: read-out: Creatin Kinase EC50; for Emax at 10 µM / Creatin Kinase Efficacy (%): @10 μM. As to the method: as §1, §2, §3

As for `CC[C@@H](C)[C@H]1c2ccccc2-c2ccccc2N1S(=O)(=O)c1ccc(O)cc1` (relative stereo) [Example 22, 4-{[(S*)-6-[(R*)-1-methylpropyl]phenanthridin-5(6H)-yl]sulfonyl}phenol], the melting point – broadly, the temperature, or range, at which the solid turns liquid – was 115 to 118 °C. Also, in data set [1] (Homo sapiens, HAECT1, IL-1β), the Emax stood at 96% and the IC50 was 163 nM. Further, the Emax at 10 µM in data set [2] is less than 35%.
In turn, `C[C@H]1c2ccccc2-c2ccccc2N1S(=O)(=O)c1ccc(O)cc1` (single isomer, unassigned) [Example 2] yielded a melting point of 176 to 178 °C. In data set [1] (Homo sapiens, HAECT1, IL-1β), the Emax amounted to 103% and the IC50 was 40 nM. Also, in data set [2], the EC50 (as a rule, the concentration needed to bring the measured effect to its halfway point) was found to be 420 nM and the Emax was found to be 28%.
Take `C[C@@H]1c2ccccc2-c2ccccc2N1S(=O)(=O)c1ccc(O)cc1` (single isomer, unassigned) [Example 3]: the melting point was in the range of 181 to 183 °C. In data set [1] (Homo sapiens, HAECT1, IL-1β), the Emax was 97% and the IC50 came out at 1510 nM. Further, in data set [2], the Emax at 10 µM is less than 35%.
The corresponding values for `O=S(=O)(c1ccc(O)cc1)N1c2ccccc2-c2ccccc2[C@H]1c1ccccc1` (single isomer, unassigned) [Example 10] are 208 to 210 °C, 95%, 61 nM and less than 35%.
Turning to `O=S(=O)(c1ccc(O)cc1)N1c2ccccc2-c2ccccc2[C@@H]1c1ccccc1` (single isomer, unassigned) [Example 11], the melting point fell in the range of 210 to 212 °C. In data set [1] (Homo sapiens, HAECT1, IL-1β), the Emax was 115% and the IC50 was 168 nM. Moreover, in data set [2], the EC50 is 117 nM and the Emax came out at 37%.
In the same order, the values of `CC1c2ccccc2-c2ccccc2N1S(=O)(=O)c1ccc(O)cc1` (centres unmarked) [Example 1, 4-[(6-Methylphenanthridin-5(6H)-yl)sulfonyl]phenol] are 196 to 198 °C, 94%, 422 nM, 1000 nM and 39%.
In the same order, the values of `CC1c2ccccc2-c2cc(Br)ccc2N1S(=O)(=O)c1ccc(O)cc1` (centres unmarked) [Example 4, 4-[(2-Bromo-6-methylphenanthridin-5(6H)-yl)sulfonyl]phenol] are 201 to 203 °C, 101%, 54 nM, 48 nM and 23%.
In turn, `Cc1cc(S(=O)(=O)N2c3ccccc3-c3ccccc3C2C)ccc1O` (centres unmarked) [Example 5, 2-Methyl-4-[(6-methylphenanthridin-5(6H)-yl)sulfonyl]phenol] gave a melting point of 186 to 188 °C. In addition, in data set [1] (Homo sapiens, HAECT1, IL-1β), the Emax amounted to 102% and the IC50 was 433 nM. Moreover, the Emax at 10 µM in data set [2] was less than 35%.
In the same order, the values of `Cc1cc(S(=O)(=O)N2c3ccc(Br)cc3-c3ccccc3C2C)ccc1O` (centres unmarked) [Example 6, 4-[(2-Bromo-6-methylphenanthridin-5(6H)-yl)sulfonyl]-2-methylphenol] are 193 to 195 °C, 92%, 474 nM and less than 35%.
`CC1c2ccccc2-c2ccccc2N1S(=O)(=O)c1ccc(O)c(C(=O)O)c1` (centres unmarked) [Example 24, 2-Hydroxy-5-[(6-methylphenanthridin-5(6H)-yl)sulfonyl]benzoic acid] came in with a melting point of 225 to 230 °C.
The same measure, in the same setting: with `CCOC(=O)c1cc(S(=O)(=O)N2c3ccccc3-c3ccccc3C2C)ccc1OCC` (centres unmarked) [Example 25, Ethyl 2-ethoxy-5-[(6-methylphenanthridin-5(6H)-yl)sulfonyl]benzoate] the figure was 113 to 115 °C.
The same measure, in the same setting: under `CC1c2cc(Cl)ccc2-c2ccccc2N1S(=O)(=O)c1ccc(O)cc1` (centres unmarked) [Example 61, 4-[(8-Chloro-6-methylphenanthridin-5(6H)-yl)sulfonyl]phenol] stands 176 to 178 °C.
On to `CCC1c2ccccc2-c2cc(-c3ccccc3)ccc2N1S(=O)(=O)c1ccc(O)cc1` (centres unmarked) [Example 69, 4-[(6-Ethyl-2-phnylphenanthridin-5(6H)-yl)sulfonyl]phenol], for which, in data set [1] (IL-1β), the “ER/NFκB Efficacy (%)*” value came out at 90% and the IC50 came out at 235 nM. The “Creatin Kinase Efficacy (%)” value in data set [2] is less than 35% @10 μM.
The corresponding values for `CCC1c2ccccc2-c2cc(-c3ccccc3C)ccc2N1S(=O)(=O)c1ccc(O)cc1` (centres unmarked) [Example 70, 4-{[6-Ethyl-2-(2-mthylphnyl)phenanthridin-5(6H)-yl]sulfonyl}phenol] are 90%, 463 nM and less than 35% @10 μM.
Take `CCC1c2ccccc2-c2cc(-c3ccc(O)cc3)ccc2N1S(=O)(=O)c1ccc(O)cc1` (centres unmarked) [Example 73, 4-{[6-Ethyl-2-(4-hydroxyphenyl)phenanthridin-5(6H)-yl]sulfonyl}phenol]: in data set [1] (Homo sapiens, HAECT1, IL-1β), the Emax is 56% and the IC50 turned out to be 52 nM. Also, the Emax at 10 µM in data set [2] is less than 35%.
On to `CCC1c2ccccc2-c2cc(-c3ccccc3Cl)ccc2N1S(=O)(=O)c1ccc(O)cc1` (centres unmarked) [Example 74, 4-{[2-(2-Chlorophenyl)-6-ethylphenanthridin-5(6H)-yl]sulfonyl}phenol], for which, in data set [1] (Homo sapiens, HAECT1, IL-1β), the Emax came out at 96% and the IC50 was found to be 434 nM. Besides, in data set [2], the Emax at 10 µM was less than 35%.
Take `CCc1ccc(-c2ccc3c(c2)-c2ccccc2C(CC)N3S(=O)(=O)c2ccc(O)cc2)cc1` (centres unmarked) [Example 75, 4-{[6-Ethyl-2-(4-ethylphenyl)phenanthridin-5(6H)-yl]sulfonyl}phenol]: in data set [1] (Homo sapiens, HAECT1, IL-1β), the Emax was 116% and the IC50 is 3930 nM. Further, the Emax at 10 µM in data set [2] is less than 35%.
As for `CCC1c2ccccc2-c2cc(-c3ccc(C(C)=O)s3)ccc2N1S(=O)(=O)c1ccc(O)cc1` (centres unmarked) [Example 76, 1-(5-{6-Ethyl-5-[(4-hydroxyphnyl)sulfonyl]-5,6-dihydrophnanthridin-2-yl}thin-2-yl)ethanone], in data set [1] (IL-1β), the “ER/NFκB Efficacy (%)*” value amounted to 67% and the IC50 was 1180 nM. Moreover, the “Creatin Kinase Efficacy (%)” value in data set [2] is recorded as less than 35% @10 μM.
Take `CCC1c2ccccc2-c2cc(-c3ccccc3O)ccc2N1S(=O)(=O)c1ccc(O)c(C)c1` (centres unmarked) [Example 78, 4-{[6-Ethyl-2-(2-hydroxyphenyl)phenanthridin-5(6H)-yl]sulfonyl}-2-methylphenol]: in data set [1] (Homo sapiens, HAECT1, IL-1β), the Emax is 79% and the IC50 came to 771 nM. Besides, the Emax at 10 µM in data set [2] was less than 35%.
Consider `CCC1c2ccccc2-c2cc(-c3ccsc3)ccc2N1S(=O)(=O)c1ccc(O)c(C)c1` (centres unmarked) [Example 79, 4-[(6-Ethyl-2-thien-3-ylphenanthridin-5(6H)-yl)sulfonyl]-2-methylphenol], for which, in data set [1] (Homo sapiens, HAECT1, IL-1β), the Emax was 86% and the IC50 amounted to 226 nM. The Emax at 10 µM in data set [2] was less than 35%.
As for `CCC1c2ccccc2-c2cc(-c3cccc(O)c3)ccc2N1S(=O)(=O)c1ccc(O)c(C)c1` (centres unmarked) [Example 84, 4-{[6-Ethyl-2-(3-hydroxyphenyl)phenanthridin-5(6H)-yl]sulfonyl}-2-methylphenol], in data set [1] (Homo sapiens, HAECT1, IL-1β), the Emax worked out at 80% and the IC50 was 447 nM. In data set [2], the Emax at 10 µM was less than 35%.
As for `CCC1c2ccccc2-c2cc(-c3cc4ccccc4s3)ccc2N1S(=O)(=O)c1ccc(O)c(C)c1` (centres unmarked) [Example 90, 4-{[2-(1-Benzothien-2-yl)-6-ethylphenanthridin-5(6H)-yl]sulfonyl}-2-methylphenol], in data set [1] (Homo sapiens, HAECT1, IL-1β), the Emax worked out at 108% and the IC50 is 2550 nM. For the same compound, the Emax at 10 µM in data set [2] was less than 35%.
For `CCC1c2ccccc2-c2cc(-c3ccc(O)cc3)ccc2N1S(=O)(=O)c1ccc(O)c(C)c1` (centres unmarked) [Example 94, 4-{[6-Ethyl-2-(4-hydroxyphnyl)phenanthridin-5(6H)-yl]sulfnyl}-2-methylph nl], in data set [1] (IL-1β), the “ER/NFκB Efficacy (%)*” value was 105% and the IC50 came to 382 nM. In data set [2], the “Creatin Kinase Efficacy (%)” value was less than 35% @10 μM.
With `CCC1c2ccccc2-c2cc(-c3ccccc3Cl)ccc2N1S(=O)(=O)c1ccc(O)c(C)c1` (centres unmarked) [Example 95, 4-{[2-(2-Chlorophenyl)-6-ethylphenanthridin-5(6H)-yl]sulfonyl}-2-methylphenol], in data set [1] (Homo sapiens, HAECT1, IL-1β), the Emax was 89% and the IC50 came out at 678 nM. Moreover, in data set [2], the Emax at 10 µM is less than 35%.
On to `CCC1c2cc(F)ccc2-c2cc(-c3cccnc3)ccc2N1S(=O)(=O)c1ccc(O)cc1` (centres unmarked) [Example 127, 4-[(6-Ethyl-8-fluoro-2-pyridin-3-ylphenanthridin-5(6H)-yl)sulfonyl]phenol], for which the melting point lay within 195 to 200 °C.

Source of the values: patent US6894061B2, “Substituted dihydrophenanthridinesulfonamides” (Wyeth, priority 2002, dated 2005).
